Laboratory results taken from patent publication US5834487A, “Inhibition of 26S and 20S proteasome by indanones” (CV Therapeutics, priority 1996, dated 1998).
Converted amounts (≈) assume the structure as drawn.

The compounds below were run against T1, 20S catalytic subunit of the proteasome (multicatalytic proteinase complex) (Bos taurus, UniProt Q32KL2) (assay: 20S proteasome chymotryptic activity, fluorogenic peptide cleavage). Settings: 50 μM succinyl-leu-leu-val-tyr-7-amino-4-methyl coumarin, 15 minutes at 37° C, pH7.5.
T1 construct: was purified to homogeneity from bovine brain according to published methods; from tissue; host or cells: bovine brain
Format: biochemical, bovine
Method: Compounds of this invention prepared according to the method of Example 1 were tested as follows. The 20S catalytic subunit of the proteasome (also known as the multicatalytic proteinase complex) was purified to homogeneity from bovine brain according to published methods (Wilk S. and Orlowski, M, 40 842 J. Neurochem (1983)). The chymotryptic activity of the complex is measured by the increase in fluorescence following cleavage of the substrate peptide succinyl-leucine-leucine-valine-tyrosine-7-amino-4-methyl coumarin. The standard in vitro assay consists of 2 μg 20S proteasome, 0.1-100 μg/ml proteasome inhibitor in 200 μl 50 mM HEPES, containing 0.1% sodium dodecyl sulphate, pH7.5. The proteolytic reaction is initiated by the addition of 50 μM fluorogenic peptide substrate and allowed to progress for 15 minutes at 37° C. The reaction is terminated by the addition of 100 μl of 100 mM acetate buffer, pH4.0. The rate of proteolysis is directly proportional to the amount of liberated aminomethylcoumarin which is measured by fluorescent spectroscopy (EX 370 nm, EM 430 nm).

Row | SMILES | IC50
1 | COc1ccc2c(c1)C(CC(=O)NC(CC(C)C)C(=O)NC(CCCNC(=N)N)C(N)=O)CC2=O (mixture of isomers) [Compound 129] | > 10 µg/mL
2 | COc1ccc2c(c1)C(CC(=O)NC(CC(C)C)C(=O)NC(CCC(=O)O)C(N)=O)CC2=O (mixture of isomers) [Compound 133] | > 10 µg/mL
3 | COc1ccc2c(c1)C(CC(=O)NC(Cc1ccccc1)C(=O)NC(CC(C)C)C(N)=O)CC2=O (mixture of isomers) [Compound 14] | > 10 µg/mL
4 | COc1ccc2c(c1)C(CC(=O)NC(CC(C)C)C(=O)NC(C)C(N)=O)CC2=O (mixture of isomers) [Compound 53] | > 10 µg/mL
5 | COc1ccc2c(c1)C(CC(=O)Nc1ccc(Cl)c(Cl)c1)CC2=O (racemic) [Compound 157] | > 10 µg/mL
6 | COc1ccc2c(c1)C(CC(=O)NC(C)(C)CO)CC2=O (stereo not shown) [Compound 113] | > 10 µg/mL
7 | COc1ccc2c(c1)C(CC(=O)NC(CC1CCCCC1)C(=O)NC(CC(C)C)C(N)=O)CC2=O (mixture of isomers) [Compound 13] | > 10 µg/mL
8 | COc1ccc2c(c1)C(CC(=O)NC(CC(N)=O)C(=O)NC(CC(C)C)C(N)=O)CC2=O (mixture of isomers) [Compound 96] | > 10 µg/mL
9 | COc1ccc2c(c1)C(CC(=O)N1CCCC1C(N)=O)CC2=O (mixture of isomers) [Compound 55] | > 10 µg/mL
10 | COc1ccc2c(c1)C(CC(=O)NC(C)C(=O)NC(CC(C)C)C(N)=O)CC2=O (mixture of isomers) [Compound 59] | > 10 µg/mL
11 | COc1ccc2c(c1)C(CC(=O)N(CCC#N)Cc1cccnc1)CC2=O (stereo not shown) [Compound 116] | > 10 µg/mL
12 | COc1ccc2c(c1)C(CC(=O)NC(CC(C)C)C(=O)NC(CC(C)C)C(N)=O)CC2=O (mixture of isomers) [Compound 2] | 1 µg/mL
13 | COc1ccc2c(c1)C(CC(=O)NC(CC(C)C)C(=O)NC(CC(C)C)C(=O)N1CCc3ccccc3C1)CC2=O (mixture of isomers) [Compound 191] | > 10 µg/mL
14 | COc1ccc2c(c1)C(CC(=O)NC(CC(C)C)C(=O)NC(CC1CCCCC1)C(N)=O)CC2=O (mixture of isomers) [Compound 132] | > 10 µg/mL
15 | COc1ccc2c(c1)C(CC(=O)NC(Cc1c[nH]cn1)C(=O)NC(CC(C)C)C(N)=O)CC2=O (mixture of isomers) [Compound 99] | > 10 µg/mL
16 | COc1ccc2c(c1)C(CC(=O)NCC(=O)NCC(=O)NCC(N)=O)CC2=O (stereo not shown) [Compound 40] | > 10 µg/mL
17 | COc1ccc2c(c1)C(CC(=O)NC(CC(C)C)C(=O)NC(C(N)=O)C(C)C)CC2=O (mixture of isomers) [Compound 33] | > 10 µg/mL
18 | COc1ccc2c(c1)C(CC(=O)NC(C(=O)NC(C(N)=O)C(C)C)C(C)C)CC2=O (mixture of isomers) [Compound 34] | > 10 µg/mL
19 | COc1ccc2c(c1)C(CC(=O)NC(CC(C)C)C(=O)N1CCCC1C(=O)NCC(N)=O)CC2=O (mixture of isomers) [Compound 92] | > 10 µg/mL
20 | COc1ccc2c(c1)C(CC(=O)NC(CC(C)C)C(=O)NC(CC(C)C)C(N)=O)CC2=O (mixture of isomers) [Compound 7] | > 10 µg/mL

Row | SMILES | IC50
21 | COc1ccc2c(c1)C(CC(=O)NC(CC(C)C)C(=O)NC(CC(C)C)C(N)=O)CC2=O (mixture of isomers) [Compound 5] | > 10 µg/mL
22 | COc1ccc2c(c1)C(CC(=O)NCc1ccccc1)CC2=O (stereo not shown) [Compound 38] | > 10 µg/mL
23 | COc1ccc2c(c1)C(CC(=O)NC(CC(N)=O)C(=O)NC(CC(C)C)C(N)=O)CC2=O (mixture of isomers) [Compound 95] | 10 µg/mL
24 | COc1ccc2c(c1)C(CC(=O)N1CCCC1C(=O)NC(CC(C)C)C(N)=O)CC2=O (mixture of isomers) [Compound 31] | 10 µg/mL
25 | COc1ccc2c(c1)C(CC(=O)NCCN1CCCC1)CC2=O (stereo not shown) [Compound 112] | > 10 µg/mL
26 | CCCC(NC(=O)CC1CC(=O)c2ccc(OC)cc21)C(=O)NC(CC(C)C)C(N)=O (mixture of isomers) [Compound 58] | > 10 µg/mL
27 | COc1ccc2c(c1)C(CC(=O)NC(CC(C)C)C(=O)NC(CC(N)=O)C(N)=O)CC2=O (mixture of isomers) [Compound 131] | > 10 µg/mL
28 | COc1ccc2c(c1)C(CC(=O)NC(CC(C)C)C(=O)NC(C)(C)C(N)=O)CC2=O (mixture of isomers) [Compound 11] | > 10 µg/mL
29 | COc1ccc2c(c1)C(CC(=O)NC(CC(C)C)C(=O)NC(CC(C)C)C(=O)O)CC2=O (mixture of isomers) [Compound 171] | > 10 µg/mL
30 | COc1ccc2c(c1)C(CC(=O)Nc1nc(O)c(C)c(O)n1)CC2=O (stereo not shown) [Compound 145] | > 10 µg/mL
31 | COc1ccc2c(c1)C(CC(=O)NC(CO)C(O)c1ccccc1)CC2=O (mixture of isomers) [Compound 165] | > 50 µg/mL
32 | COc1ccc2c(c1)C(CC(=O)NC(C(=O)NC(CC(C)C)C(=O)NCC(N)=O)c1ccccc1)CC2=O (mixture of isomers) [Compound 48] | > 10 µg/mL
33 | COc1ccc2c(c1)C(CC(=O)NC(Cc1c[nH]c3ccccc13)C(=O)NC(CC(C)C)C(N)=O)CC2=O (mixture of isomers) [Compound 103] | > 10 µg/mL
34 | COc1ccc2c(c1)C(CC(=O)NCCCc1ccccc1)CC2=O (stereo not shown) [Compound 66] | > 10 µg/mL
35 | COc1ccc2c(c1)C(CC(=O)NC(CC(C)C)C(=O)N(Cc1ccccc1)Cc1ccccc1)CC2=O (mixture of isomers) [Compound 199] | > 10 µg/mL
36 | COc1ccc2c(c1)C(CC(=O)NCCc1ccccc1)CC2=O (stereo not shown) [Compound 65] | > 10 µg/mL
37 | COc1ccc2c(c1)C(CC(=O)N1Cc3ccccc3CC1C(=O)NC(CC(C)C)C(N)=O)CC2=O (mixture of isomers) [Compound 60] | > 10 µg/mL
38 | COc1ccc2c(c1)C(CC(=O)NC(CC(C)C)C(=O)NC(CC(C)C)C(=O)NCc1ccc([N+](=O)[O-])cc1)CC2=O (mixture of isomers) [Compound 195] | 10 µg/mL
39 | COc1ccc2c(c1)C(CC(=O)NC(CC1CCCCC1)C(=O)NC(CC1CCCCC1)C(N)=O)CC2=O (mixture of isomers) [Compound 35] | > 10 µg/mL
40 | CCCC(NC(=O)C(CC(C)C)NC(=O)CC1CC(=O)c2ccc(OC)cc21)C(N)=O (mixture of isomers) [Compound 139] | > 10 µg/mL

Row | SMILES | IC50
41 | COc1ccc2c(c1)C(CC(=O)NC(Cc1ccccc1)C(N)=O)CC2=O (mixture of isomers) [Compound 24] | > 10 µg/mL
42 | CCCCC(NC(=O)CC1CC(=O)c2ccc(OC)cc21)C(N)=O (mixture of isomers) [Compound 8] | > 10 µg/mL
43 | COc1ccc2c(c1)C(CC(=O)NC(CC(C)C)C(=O)NC(Cc1c[nH]c3ccccc13)C(N)=O)CC2=O (mixture of isomers) [Compound 136] | > 10 µg/mL
44 | COc1ccc2c(c1)C(CC(=O)NC(CC(C)C)C(=O)NC(CC(C)C)C(=O)NC(C)C(N)=O)CC2=O (mixture of isomers) [Compound 125] | > 10 µg/mL
45 | COc1ccc2c(c1)C(CC(=O)Nc1ccc(I)cc1)CC2=O (racemic) [Compound 152] | > 10 µg/mL
46 | COc1ccc2c(c1)C(CC(=O)NC(CCCNC(=N)N)C(=O)NC(CC(C)C)C(N)=O)CC2=O (mixture of isomers) [Compound 93] | > 10 µg/mL
47 | COc1ccc2c(c1)C(CC(=O)N(C)C)CC2=O (stereo not shown) [Compound 78] | > 10 µg/mL
48 | COc1ccc2c(c1)C(CC(=O)NC(Cc1ccccc1)C(=O)NC(CC(C)C)C(=O)NCC(N)=O)CC2=O (mixture of isomers) [Compound 45] | > 10 µg/mL
49 | COc1ccc2c(c1)C(CC(=O)NC(Cc1ccccc1)C(N)=O)CC2=O (mixture of isomers) [Compound 12] | > 10 µg/mL
50 | COCCCNC(=O)CC1CC(=O)c2ccc(OC)cc21 (stereo not shown) [Compound 71] | > 10 µg/mL
51 | COc1ccc2c(c1)C(CC(=O)Nc1ccccc1)CC2=O (racemic) [Compound 168] | > 50 µg/mL
52 | COc1ccc2c(c1)C(CC(=O)NC(CC(C)C)C(=O)NC(CC(C)C)C(=O)NCC(N)=O)CC2=O (mixture of isomers) [Compound 17] | > 10 µg/mL
53 | COc1ccc2c(c1)C(CC(=O)N(Cc1ccccc1)Cc1ccccc1)CC2=O (stereo not shown) [Compound 39] | > 10 µg/mL
54 | CCCCC(NC(=O)CC1CC(=O)c2ccc(OC)cc21)C(=O)NC(CC(C)C)C(N)=O (mixture of isomers) [Compound 23] | > 10 µg/mL
55 | COc1ccc2c(c1)C(CC(=O)NC(CC(C)C)C(=O)NC(CC(C)C)C(=O)NC(Cc1ccccc1)C(N)=O)CC2=O (mixture of isomers) [Compound 127] | > 10 µg/mL
56 | CCCC(NC(=O)CC1CC(=O)c2ccc(OC)cc21)C(=O)NC(CC(C)C)C(N)=O (mixture of isomers) [Compound 57] | > 10 µg/mL
57 | COc1ccc2c(c1)C(CC(=O)N[C@@H](CC(C)C)C(=O)N[C@@H](C(=O)NCC(N)=O)c1ccccc1)CC2=O (stereo partly shown) [Compound 91] | 10 µg/mL (≈ 19.1 µM)
58 | COc1ccc2c(c1)C(CC(=O)NC1CCC1)CC2=O (stereo not shown) [Compound 69] | > 10 µg/mL
